According to the METLIN SMRT retention time set (Domingo-Almenara et al. 2019):

Test: gradient 5% acetonitrile 3 min, to 50% in 2 min, to 85% in 15 min, held 3 min, 100 µL/min
Settings: column: Zorbax Extend-C18 2.1 x 50 mm; eluents: water / acetonitrile, 0.1% formic acid
Procedure, shortened: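 Over 3 months, pure standards in mixtures of ~100 molecules were run by HPLC coupled to a quadrupole time-of-flight mass spectrometer in positive and negative ionization mode. The column was a Zorbax Extend-C18 (2.1 × 50 mm, 1.8 μm) at 100 μL/min, eluted with water and acetonitrile each holding 0.1% formic acid, with 40 μL dead and 900 μL dwell volumes. Retention time was determined from adduct peaks chosen by software and checked manually.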

SMILES: CC1=C(c2ccccc2)S(=O)(=O)N=C1N1CCC(NC(=O)NCC(C)C)CC1
- RP-LC retention time: 790 s

SMILES: COc1ccc(CC(=O)N2CCc3cc(-c4noc(C)n4)ccc32)cc1Cl
- RP-LC retention time: 979 s

SMILES: COc1ccc(CNC(=O)C2CCCN(S(=O)(=O)c3cc(-c4noc(C)n4)cs3)C2)cc1 (stereo not drawn)
- RP-LC retention time: 1040 s

SMILES: O=C(C1CCN(S(=O)(=O)c2cccc3nonc23)CC1)N1CCc2ccccc2C1
- RP-LC retention time: 913 s

SMILES: Cc1ccc2[nH]cc(CCNC(=O)c3ccc(Cl)cc3Cl)c2c1
- RP-LC retention time: 957 s

SMILES: Cc1cc2c(cc1S(=O)(=O)N1CCCC1C(=O)NCc1ccccc1Cl)OCC(=O)N2 (stereo not drawn)
- RP-LC retention time: 791 s

SMILES: O=C(NCCCN1CCCC1=O)c1ccc2nc(Cc3ccccc3)oc2c1
- RP-LC retention time: 731 s

SMILES: CCN(CC)C(=O)c1cc2c(s1)CCC(C(=O)Nc1ccc(N3CCOCC3)cc1)C2 (stereo not drawn)
- RP-LC retention time: 767 s

SMILES: Cc1cc(NC(=O)N2CCN(CCn3c(C)nc4cccnc43)CC2)ccc1Br
- RP-LC retention time: 641 s

SMILES: CC(=O)Nc1ccc(NC(=O)c2cc3sccc3n2Cc2ccc(F)cc2)cc1
- RP-LC retention time: 911 s

SMILES: O=C(Cn1nc2c(cc1=O)CCCC2)Nc1nc(-c2ccncc2)cs1
- RP-LC retention time: 606 s

SMILES: COC(=O)C1=CN(C2CC2)c2cc(N3CCC(C)CC3)c(F)cc2S1(=O)=O
- RP-LC retention time: 1010 s

SMILES: Cn1nccc1-c1cccc(-c2noc(-c3ccccn3)n2)c1
- RP-LC retention time: 818 s

SMILES: Cn1cc(CCN2CCC(C(=O)NCc3ccc(F)cc3Cl)CC2)c2cccnc21
- RP-LC retention time: 640 s

SMILES: Cc1ccc(CNC(=O)N2CCN(Cc3c(C)noc3C)CC2)cc1
- RP-LC retention time: 611 s

SMILES: COc1ccc(CNC(=O)C2CCN(S(=O)(=O)c3ccc4c(c3)NC(=O)C(C)O4)CC2)cc1 (stereo not drawn)
- RP-LC retention time: 788 s

SMILES: Fc1ccc(Cc2nc(-c3ccc4nncn4c3)no2)cc1
- RP-LC retention time: 770 s

SMILES: C=CCN1CCN(c2ccc3nnc(CCc4nc(-c5ccccc5OC)no4)n3n2)CC1
- RP-LC retention time: 573 s

SMILES: COc1ccc(CN2CCCN(c3cc(-c4ccccc4)[nH]n3)CC2)c(O)c1
- RP-LC retention time: 620 s

SMILES: CC1=C(c2ccc(C)c(C)c2)S(=O)(=O)N=C1N1CCCN(C(=O)c2ccsc2)CC1
- RP-LC retention time: 858 s

SMILES: CSc1nc(=O)[nH]nc1Sc1ccccc1
- RP-LC retention time: 800 s

SMILES: O=c1n(Cc2ccc(Cl)cc2)nc2c(S(=O)(=O)N3CCOCC3)cccn12
- RP-LC retention time: 808 s

SMILES: O=C(c1ccccc1)N1CCC(n2nc(-c3ccsc3)ccc2=O)CC1
- RP-LC retention time: 780 s

SMILES: CCOc1ccc(N(C)S(=O)(=O)c2ccsc2C(=O)NCc2cccc(OCC)c2)cc1
- RP-LC retention time: 1160 s

SMILES: O=C(C1CCCO1)N1CCn2c(nnc2-c2ccccc2)C1 (stereo not drawn)
- RP-LC retention time: 608 s

SMILES: COc1cccc(CNC(=O)Cn2c(=O)c3c(C(=O)N4CCCCC4)cc(C)nc3n(C)c2=O)c1
- RP-LC retention time: 778 s

SMILES: Cc1ccnc(Nc2nc(C)c3ccccc3n2)n1
- RP-LC retention time: 580 s

SMILES: Cc1noc2ncn(CC(=O)NCc3ccc(Cl)cc3)c(=O)c12
- RP-LC retention time: 769 s

SMILES: CN1C2CC(OC(=O)C(CO)c3ccccc3)CC1C(O)C2 (stereo not drawn)
- RP-LC retention time: 586 s

SMILES: CCOC(=O)N1CCC2(CC1)N=C(c1ccc(OCC)cc1)CC(c1ccccc1O)N2 (stereo not drawn)
- RP-LC retention time: 772 s

SMILES: COCCn1cc(CCNC(=O)Nc2cccc(Cl)c2F)c2cccnc21
- RP-LC retention time: 798 s

SMILES: CCc1cc(=O)n(CC(=O)Nc2ccccc2)c(N2CCOCC2)n1
- RP-LC retention time: 687 s

SMILES: O=C(CN1CCN(C(=O)Nc2ccc(Br)cc2)CC1=O)NCCC1=CCCCC1
- RP-LC retention time: 834 s

SMILES: O=C(NCc1cc(F)ccc1F)C1CCc2nc(N3CCOCC3)ncc2C1 (stereo not drawn)
- RP-LC retention time: 715 s

SMILES: COc1ccccc1N1CCN(c2cc(SCC(=O)Nc3cc(F)ccc3Cl)ncn2)CC1
- RP-LC retention time: 1190 s

SMILES: CCc1noc(NC(C)=O)c1-c1ccc(C)c(S(=O)(=O)Nc2ccc3c(c2)OCCO3)c1
- RP-LC retention time: 784 s

SMILES: CCCCCNC(=O)C1CCN(c2ccc(Sc3cc(C)ccc3C)nn2)CC1
- RP-LC retention time: 930 s

SMILES: COc1ccc(Cl)cc1NC(=O)NCc1ccnc(N2CCSCC2)c1
- RP-LC retention time: 667 s

SMILES: CC(C)NC(=O)C1(C)CC(c2ccccc2)=NO1 (stereo not drawn)
- RP-LC retention time: 799 s

SMILES: Cc1nnc2ccc(-c3noc(-c4ccccc4Br)n3)cn12
- RP-LC retention time: 908 s

SMILES: CCCS(=O)(=O)N1CC[C@@H]2COCCN(Cc3ccccc3)[C@@H]2C1
- RP-LC retention time: 626 s

SMILES: COc1ccc2[nH]c(C)c(CCNS(=O)(=O)c3cc(OC)c(C)cc3OC)c2c1
- RP-LC retention time: 870 s

SMILES: COc1ccc(NS(=O)(=O)c2cc3n(c2)CCN(C)C3=O)cc1
- RP-LC retention time: 657 s

SMILES: O=C(c1ccc(Cl)nc1)c1cccs1
- RP-LC retention time: 897 s

SMILES: Cc1ccc(C)c(NC(=O)Cn2ncc3c(c2=O)N(CC2CC2)C(=O)CS3)c1
- RP-LC retention time: 812 s

SMILES: Cc1nnc2ccc(S(=O)(=O)N(Cc3ccc(F)cc3)c3ccccc3)cn12
- RP-LC retention time: 863 s

SMILES: Cc1cc(C)cc(N2C(=O)CN(S(C)(=O)=O)CC2(C)C(=O)NCc2ccc(F)cc2)c1 (stereo not drawn)
- RP-LC retention time: 827 s

SMILES: CCn1cnc(S(=O)(=O)N2CCCC(C(=O)N3CCN(c4ccc(F)cc4)CC3)C2)c1 (stereo not drawn)
- RP-LC retention time: 752 s

SMILES: COc1cc(OC)c(NC(=O)Cn2cccc2-c2nc(-c3ccc4c(c3)OCO4)no2)cc1Cl
- RP-LC retention time: 1110 s

SMILES: COc1ccc(N2CCN(c3cc(SCC(=O)Nc4ccc(C)cc4)ncn3)CC2)cc1
- RP-LC retention time: 966 s

SMILES: O=C(Cc1nnc(-c2cccc(Br)c2)o1)NCc1ccc(F)cc1Cl
- RP-LC retention time: 869 s

SMILES: COc1ccc(NC(=O)C2CCN(c3cnc4nc(C)c(C)nc4c3)CC2)cc1F
- RP-LC retention time: 718 s

SMILES: CC(=O)Nc1ccc(-c2noc(C3CCN(C(=O)CCc4c[nH]c5ccccc45)CC3)n2)cc1
- RP-LC retention time: 786 s

SMILES: CN(C)C(CNC(=O)c1cc(-c2ccc(Cl)cc2)on1)c1cccs1 (stereo not drawn)
- RP-LC retention time: 728 s

SMILES: Nc1nc(Nc2ccc(F)cc2)nc2cccc(F)c12
- RP-LC retention time: 627 s

SMILES: COc1cccc(NC(=O)c2csc(-c3cn(C)c4ncccc34)n2)c1
- RP-LC retention time: 978 s

SMILES: O=C(CCCn1c(=O)c2cccn2c2ccc(F)cc21)NCc1cccs1
- RP-LC retention time: 837 s

SMILES: Cc1ccc(-c2cn3ccccc3n2)cc1NS(=O)(=O)c1ccc(Cl)cc1
- RP-LC retention time: 692 s

SMILES: Cc1ccc(NS(=O)(=O)c2cc3c(s2)CCN(C(=O)C2CC2)C3)cc1F
- RP-LC retention time: 880 s

SMILES: CC(C)Cn1ccc2c(cc(C(=O)NCCCN3CCOCC3)n2C)c1=O
- RP-LC retention time: 594 s

SMILES: CCCNC(=O)C1CCCN(c2ccc(SCC(=O)Nc3ccc(OC)c(Cl)c3)nn2)C1 (stereo not drawn)
- RP-LC retention time: 688 s

SMILES: COc1ccc(S(=O)(=O)Nc2ccc(-c3cn4ccc(C)nc4n3)cc2)cc1C
- RP-LC retention time: 661 s

SMILES: O=C(NCC(=O)N1CC2CN(S(=O)(=O)c3cccc(F)c3)CC(C1)O2)c1ccccc1
- RP-LC retention time: 730 s

SMILES: COC(=O)c1ncn2c1C(=O)N(c1ccc(F)cc1)C(C)(C(=O)NCc1ccc(C)cc1)C2 (stereo not drawn)
- RP-LC retention time: 732 s

SMILES: Cc1ccc(OCc2nn3c(-c4ccoc4C)nnc3s2)cc1C
- RP-LC retention time: 1090 s

SMILES: COC(=O)c1ccc2c(=O)n(CCc3ccccc3)c(N3CCSC3)nc2c1
- RP-LC retention time: 1110 s

SMILES: COc1ccccc1C(CNC(=O)c1cc(=O)c2ccc(Br)cc2o1)N(C)C (stereo not drawn)
- RP-LC retention time: 669 s

SMILES: CCn1ccc2cc(S(=O)(=O)N3CCCC(C(=O)NCCCN4CCCCC4)C3)ccc21 (stereo not drawn)
- RP-LC retention time: 676 s

SMILES: O=C(NCc1ccncc1)c1csc(-c2ccc(N3CCCC3)nc2)n1
- RP-LC retention time: 559 s

SMILES: Cn1nc(C(=O)N2CCCC(C(=O)N3CCCC3)C2)c2c1CCN(C(=O)c1ccccc1Cl)C2 (stereo not drawn)
- RP-LC retention time: 662 s

SMILES: O=C(NCCc1c[nH]c2ccccc12)c1cc2cccnc2n(Cc2ccccc2)c1=O
- RP-LC retention time: 1070 s

SMILES: Cc1cc(NC(=O)C(C)Oc2ccc(-c3cnc4ccccc4n3)cc2)no1 (stereo not drawn)
- RP-LC retention time: 890 s

SMILES: Cc1cccc(-c2nc(NCCCN3CCOCC3)c3ccccc3n2)c1
- RP-LC retention time: 819 s

SMILES: CCOc1ccc(C(C)NC(=O)C2CCN(c3cncnc3N3CCOCC3)CC2)cc1 (stereo not drawn)
- RP-LC retention time: 649 s

SMILES: CC(=O)N1c2ccc(S(=O)(=O)N3CCCCC3)cc2CC1C(=O)NC1CCCCC1 (stereo not drawn)
- RP-LC retention time: 905 s

SMILES: Cc1cc(=O)n(CC(=O)Nc2ccc(F)cc2F)c(-c2ccc(F)cc2)n1
- RP-LC retention time: 1050 s

SMILES: CCOc1cc2c(cc1OCC)C1C(C(=O)NCCCN3CCCC3)c3ccccc3C(=O)N1CC2 (stereo not drawn)
- RP-LC retention time: 624 s

SMILES: CCC(=O)N(C1CCOCC1)C1CCN(S(=O)(=O)c2cccnc2)CC1
- RP-LC retention time: 807 s

SMILES: CCN1C(=O)c2cc(S(=O)(=O)NCc3ccccc3F)ccc2Oc2cccnc21
- RP-LC retention time: 1010 s

SMILES: Cn1cc(-c2ccccc2)cc1C(=O)NCCCN1CCOCC1
- RP-LC retention time: 636 s

SMILES: COc1ccc([N+](=O)[O-])cc1NC(=O)Cc1cccc2ccccc12
- RP-LC retention time: 967 s

SMILES: CCC(=O)N1CCc2cc(-c3ccc(C(=O)NCc4ccco4)cc3)ccc21
- RP-LC retention time: 849 s

SMILES: O=C(NC1CCCCCC1)c1ccc(CN2CCN(Cc3ccccc3)C(=O)C2=O)cc1
- RP-LC retention time: 812 s

SMILES: CCOC(=O)c1cnc(N2CCN(Cc3ccc4c(c3)OCO4)CC2)[nH]c1=O
- RP-LC retention time: 605 s

SMILES: Cc1ccc2c(c1)c(=O)c1c(n2C)CCN(CC(=O)Nc2ccccc2Cl)C1
- RP-LC retention time: 640 s

SMILES: O=C1C(c2cccnc2)N(Cc2ccc3c(c2)OCO3)C(=O)CN1c1ccccc1 (stereo not drawn)
- RP-LC retention time: 636 s

SMILES: Cc1cc(Cl)ccc1NC(=O)N1CCCC1c1nncn1-c1ccccc1 (stereo not drawn)
- RP-LC retention time: 724 s

SMILES: O=C(NC1CC1)[C@@H]1C[C@H](Oc2ccccc2)CN1C(=O)C1CCCC1
- RP-LC retention time: 750 s
